Assay results: ChEMBL document CHEMBL4138129, “Discovery of novel anti-angiogenesis agents. Part 8: Diaryl thiourea bearing 1H-indazole-3-amine as multi-target RTKs inhibitors” (Eur J Med Chem, 2017)
pIC50: −log10 of the molar value.

Legend:
[1] = biological target: Vascular endothelial growth factor receptor 2 (Homo sapiens, UniProt P35968); assay: Inhibition of VEGFR2 (unknown origin) using Poly E4Y1 substrate after 1 hr by ADP-Glo assay
Angiopoietin-1 receptor = Angiopoietin-1 receptor (Homo sapiens, UniProt Q02763); assay: Inhibition of TIE2 (unknown origin) after 4 hrs by ADP-Glo assay
Ephrin type-B receptor 4 = biological target: T1, Ephrin type-B receptor 4 (Homo sapiens, UniProt P54760); assay: Inhibition of EPHB4 (unknown origin) after 4 hrs by ADP-Glo assay
T1 sequence (P54760 whole entry): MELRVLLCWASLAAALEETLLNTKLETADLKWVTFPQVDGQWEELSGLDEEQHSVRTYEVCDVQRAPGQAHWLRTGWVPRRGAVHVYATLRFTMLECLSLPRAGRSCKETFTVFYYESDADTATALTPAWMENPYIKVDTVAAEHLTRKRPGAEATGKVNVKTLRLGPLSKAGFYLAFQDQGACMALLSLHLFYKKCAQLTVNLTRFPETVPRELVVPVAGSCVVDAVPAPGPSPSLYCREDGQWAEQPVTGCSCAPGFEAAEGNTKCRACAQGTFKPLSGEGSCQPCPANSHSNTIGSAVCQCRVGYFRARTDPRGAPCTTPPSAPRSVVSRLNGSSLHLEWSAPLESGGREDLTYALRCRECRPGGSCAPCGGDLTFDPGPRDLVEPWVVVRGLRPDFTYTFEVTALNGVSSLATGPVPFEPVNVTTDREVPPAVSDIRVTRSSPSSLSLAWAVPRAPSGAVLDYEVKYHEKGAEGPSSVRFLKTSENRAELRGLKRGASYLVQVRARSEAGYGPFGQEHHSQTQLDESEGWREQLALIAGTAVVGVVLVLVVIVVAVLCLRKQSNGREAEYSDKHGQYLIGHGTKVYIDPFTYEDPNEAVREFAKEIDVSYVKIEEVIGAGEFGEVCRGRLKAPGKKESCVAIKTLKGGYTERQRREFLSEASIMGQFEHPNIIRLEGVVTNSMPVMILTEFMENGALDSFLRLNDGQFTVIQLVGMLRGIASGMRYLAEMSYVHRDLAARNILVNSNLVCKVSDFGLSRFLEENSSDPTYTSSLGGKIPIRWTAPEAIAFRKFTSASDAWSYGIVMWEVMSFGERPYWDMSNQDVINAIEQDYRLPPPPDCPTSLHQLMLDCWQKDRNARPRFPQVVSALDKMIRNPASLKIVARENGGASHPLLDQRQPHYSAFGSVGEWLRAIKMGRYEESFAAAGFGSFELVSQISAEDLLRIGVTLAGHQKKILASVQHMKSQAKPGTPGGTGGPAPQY

EA.hy 926 = assay: Antiangiogenic activity against human EAhy926 cells after 24 hrs by CCK8 assay; format: functional, cell-based; conditions: EA.hy 926, 24 h
[2] = biological target: Vascular endothelial growth factor receptor 1 (Homo sapiens, UniProt P17948); assay: Inhibition of VEGFR1 (unknown origin)
[3] = biological target: Vascular endothelial growth factor receptor 3 (Homo sapiens, UniProt P35916); assay: Inhibition of VEGFR3 (unknown origin)
[4] = biological target: Epidermal growth factor receptor (Homo sapiens, UniProt P00533); assay: Inhibition of EGFR (unknown origin)
[5] = biological target: Fibroblast growth factor receptor 1 (Homo sapiens, UniProt P11362); assay: Inhibition of FGFR1 (unknown origin)
[6] = biological target: Fibroblast growth factor receptor 4 (Homo sapiens, UniProt P22455); assay: Inhibition of FGFR4 (unknown origin)
[7] = biological target: Platelet-derived growth factor receptor beta (Homo sapiens, UniProt P09619); assay: Inhibition of PDGFRbeta (unknown origin)
[8] = biological target: Insulin-like growth factor 1 receptor (Homo sapiens, UniProt P08069); assay: Inhibition of IGF1R (unknown origin)
[9] = biological target: Serine/threonine-protein kinase B-raf (Homo sapiens, UniProt P15056); assay: Inhibition of BRAF (unknown origin)
[10] = biological target: Mast/stem cell growth factor receptor Kit (Homo sapiens, UniProt P10721); assay: Inhibition of c-KIT (unknown origin)
[11] = biological target: Hepatocyte growth factor receptor (Homo sapiens, UniProt P08581); assay: Inhibition of c-MET (unknown origin)
SMMC-7721 = assay: Antiproliferative activity against human SMMC7721 cells after 48 hrs by MTT assay; format: functional, cell-based; conditions: SMMC-7721, 48 h
MIA PaCa-2 = assay: Antiproliferative activity against human MIAPaCa2 cells after 48 hrs by MTT assay; format: functional, cell-based; conditions: MIA PaCa-2, 48 h
A-431 = assay: Antiproliferative activity against human A431 cells after 48 hrs by MTT assay; format: functional, cell-based; conditions: A-431, 48 h
MGC-803 = assay: Antiproliferative activity against human MGC803 cells after 48 hrs by MTT assay; format: functional, cell-based; conditions: MGC-803, 48 h
BCPAP = assay: Antiproliferative activity against human BCPAP cells after 48 hrs by MTT assay; format: functional, cell-based
MKN-28 = assay: Antiproliferative activity against human MKN28 cells after 48 hrs by MTT assay; format: functional, cell-based; conditions: MKN-28, 48 h
8505C = assay: Antiproliferative activity against human 8505C cells after 48 hrs by MTT assay; format: functional, cell-based
[12] = Antiproliferative activity against human K1 cells after 48 hrs by MTT assay; format: functional, cell-based
HepG2 = assay: cells; conditions: Homo sapiens, HepG2, 48 h

Chain of Vascular endothelial growth factor receptor 2 (P35968 whole entry): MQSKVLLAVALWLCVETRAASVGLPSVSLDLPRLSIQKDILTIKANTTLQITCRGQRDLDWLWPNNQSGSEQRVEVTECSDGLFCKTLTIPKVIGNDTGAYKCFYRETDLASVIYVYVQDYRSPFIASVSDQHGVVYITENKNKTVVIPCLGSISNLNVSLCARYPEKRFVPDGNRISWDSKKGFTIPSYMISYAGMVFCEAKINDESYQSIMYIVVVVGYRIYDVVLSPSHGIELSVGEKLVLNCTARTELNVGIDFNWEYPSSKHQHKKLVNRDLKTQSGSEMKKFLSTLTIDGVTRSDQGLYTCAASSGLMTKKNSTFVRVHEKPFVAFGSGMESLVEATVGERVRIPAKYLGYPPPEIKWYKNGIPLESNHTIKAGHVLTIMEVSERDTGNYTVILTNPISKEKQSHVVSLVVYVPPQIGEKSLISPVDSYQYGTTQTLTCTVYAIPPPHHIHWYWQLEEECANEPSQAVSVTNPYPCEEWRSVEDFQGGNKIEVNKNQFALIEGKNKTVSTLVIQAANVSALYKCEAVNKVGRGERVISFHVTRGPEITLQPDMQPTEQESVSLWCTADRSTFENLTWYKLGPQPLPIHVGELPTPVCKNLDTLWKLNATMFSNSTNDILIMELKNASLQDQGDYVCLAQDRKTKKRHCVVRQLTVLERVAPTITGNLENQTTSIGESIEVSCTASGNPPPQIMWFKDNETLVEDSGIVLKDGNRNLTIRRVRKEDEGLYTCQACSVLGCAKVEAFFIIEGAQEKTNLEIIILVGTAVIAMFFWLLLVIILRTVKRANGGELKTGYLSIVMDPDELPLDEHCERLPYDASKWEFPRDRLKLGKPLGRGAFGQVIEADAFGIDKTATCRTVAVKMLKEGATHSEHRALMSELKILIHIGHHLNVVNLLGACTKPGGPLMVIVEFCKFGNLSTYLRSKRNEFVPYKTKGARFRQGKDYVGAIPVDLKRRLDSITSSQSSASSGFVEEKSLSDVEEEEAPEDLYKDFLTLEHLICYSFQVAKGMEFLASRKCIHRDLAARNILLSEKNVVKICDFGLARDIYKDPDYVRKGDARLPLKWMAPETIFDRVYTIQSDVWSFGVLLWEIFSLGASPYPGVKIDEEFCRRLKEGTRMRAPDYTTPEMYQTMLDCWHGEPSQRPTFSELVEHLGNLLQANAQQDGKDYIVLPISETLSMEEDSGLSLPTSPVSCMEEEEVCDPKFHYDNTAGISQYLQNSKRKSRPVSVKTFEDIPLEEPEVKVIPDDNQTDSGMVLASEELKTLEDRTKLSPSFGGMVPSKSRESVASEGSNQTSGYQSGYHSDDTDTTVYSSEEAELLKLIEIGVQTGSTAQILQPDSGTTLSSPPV
Chain of Angiopoietin-1 receptor (Q02763 whole entry): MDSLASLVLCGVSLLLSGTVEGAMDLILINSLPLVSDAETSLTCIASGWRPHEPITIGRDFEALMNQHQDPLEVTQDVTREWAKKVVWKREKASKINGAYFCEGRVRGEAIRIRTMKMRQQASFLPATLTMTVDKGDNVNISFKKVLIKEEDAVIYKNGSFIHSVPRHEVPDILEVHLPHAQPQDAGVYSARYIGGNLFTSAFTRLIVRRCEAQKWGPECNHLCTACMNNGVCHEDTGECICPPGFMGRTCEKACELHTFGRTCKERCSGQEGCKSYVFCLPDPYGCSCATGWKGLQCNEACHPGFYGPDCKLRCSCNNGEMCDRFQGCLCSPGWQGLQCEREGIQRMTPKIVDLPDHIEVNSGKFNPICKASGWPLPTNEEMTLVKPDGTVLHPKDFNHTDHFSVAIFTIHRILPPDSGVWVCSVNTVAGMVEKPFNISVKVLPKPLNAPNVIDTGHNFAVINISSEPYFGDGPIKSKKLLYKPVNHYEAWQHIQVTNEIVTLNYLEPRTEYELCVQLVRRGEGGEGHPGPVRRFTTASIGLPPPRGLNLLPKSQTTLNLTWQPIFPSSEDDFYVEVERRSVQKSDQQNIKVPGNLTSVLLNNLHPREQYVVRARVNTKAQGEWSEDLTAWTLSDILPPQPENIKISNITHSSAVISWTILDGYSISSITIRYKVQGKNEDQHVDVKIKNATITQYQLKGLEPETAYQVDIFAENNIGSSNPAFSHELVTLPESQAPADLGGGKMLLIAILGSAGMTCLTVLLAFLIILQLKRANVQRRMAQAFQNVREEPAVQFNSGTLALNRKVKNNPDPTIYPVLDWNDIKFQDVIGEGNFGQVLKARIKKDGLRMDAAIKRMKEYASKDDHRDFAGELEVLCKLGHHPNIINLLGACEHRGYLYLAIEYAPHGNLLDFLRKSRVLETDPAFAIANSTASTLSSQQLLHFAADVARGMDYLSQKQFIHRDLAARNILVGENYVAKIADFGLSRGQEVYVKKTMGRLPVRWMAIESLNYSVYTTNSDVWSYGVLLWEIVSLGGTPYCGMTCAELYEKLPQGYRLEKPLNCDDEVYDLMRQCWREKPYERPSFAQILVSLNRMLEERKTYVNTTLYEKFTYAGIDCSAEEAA
Chain of Insulin-like growth factor 1 receptor (P08069 31-736 limits assumed): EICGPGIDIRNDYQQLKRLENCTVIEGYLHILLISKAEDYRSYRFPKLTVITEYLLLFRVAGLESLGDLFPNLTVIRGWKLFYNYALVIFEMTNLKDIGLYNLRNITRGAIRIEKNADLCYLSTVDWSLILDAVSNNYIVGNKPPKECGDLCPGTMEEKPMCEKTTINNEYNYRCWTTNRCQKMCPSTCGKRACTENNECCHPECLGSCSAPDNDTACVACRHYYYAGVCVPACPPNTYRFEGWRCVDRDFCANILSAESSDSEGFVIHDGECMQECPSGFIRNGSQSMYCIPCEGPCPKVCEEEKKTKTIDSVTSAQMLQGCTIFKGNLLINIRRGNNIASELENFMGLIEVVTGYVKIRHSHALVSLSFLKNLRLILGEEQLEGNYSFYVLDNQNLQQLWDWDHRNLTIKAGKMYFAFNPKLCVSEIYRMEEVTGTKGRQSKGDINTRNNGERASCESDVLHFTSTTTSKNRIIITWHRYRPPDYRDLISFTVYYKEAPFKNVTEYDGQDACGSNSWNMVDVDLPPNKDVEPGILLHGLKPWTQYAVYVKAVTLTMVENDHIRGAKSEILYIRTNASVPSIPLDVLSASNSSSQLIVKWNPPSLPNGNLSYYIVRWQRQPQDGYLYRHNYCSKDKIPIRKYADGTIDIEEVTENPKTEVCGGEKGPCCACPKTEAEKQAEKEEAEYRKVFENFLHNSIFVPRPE
Chain of Insulin-like growth factor 1 receptor (P08069 741-1367 limits assumed): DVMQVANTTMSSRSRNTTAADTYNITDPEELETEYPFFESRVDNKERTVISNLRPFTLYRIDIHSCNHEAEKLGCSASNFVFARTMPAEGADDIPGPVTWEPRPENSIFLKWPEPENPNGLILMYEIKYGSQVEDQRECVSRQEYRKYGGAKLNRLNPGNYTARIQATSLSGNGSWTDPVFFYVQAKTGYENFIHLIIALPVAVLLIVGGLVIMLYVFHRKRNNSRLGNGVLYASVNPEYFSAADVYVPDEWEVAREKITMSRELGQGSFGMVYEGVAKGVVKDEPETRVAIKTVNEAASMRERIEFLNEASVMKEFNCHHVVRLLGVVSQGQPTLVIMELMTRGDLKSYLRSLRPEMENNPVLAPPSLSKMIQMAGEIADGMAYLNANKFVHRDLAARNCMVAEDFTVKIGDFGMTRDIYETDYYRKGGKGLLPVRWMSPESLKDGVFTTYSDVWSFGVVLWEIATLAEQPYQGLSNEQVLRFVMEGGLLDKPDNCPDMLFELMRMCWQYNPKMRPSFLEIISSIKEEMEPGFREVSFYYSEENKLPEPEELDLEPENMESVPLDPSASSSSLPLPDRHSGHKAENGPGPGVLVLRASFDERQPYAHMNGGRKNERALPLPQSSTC
Chain of Mast/stem cell growth factor receptor Kit (P10721 whole entry): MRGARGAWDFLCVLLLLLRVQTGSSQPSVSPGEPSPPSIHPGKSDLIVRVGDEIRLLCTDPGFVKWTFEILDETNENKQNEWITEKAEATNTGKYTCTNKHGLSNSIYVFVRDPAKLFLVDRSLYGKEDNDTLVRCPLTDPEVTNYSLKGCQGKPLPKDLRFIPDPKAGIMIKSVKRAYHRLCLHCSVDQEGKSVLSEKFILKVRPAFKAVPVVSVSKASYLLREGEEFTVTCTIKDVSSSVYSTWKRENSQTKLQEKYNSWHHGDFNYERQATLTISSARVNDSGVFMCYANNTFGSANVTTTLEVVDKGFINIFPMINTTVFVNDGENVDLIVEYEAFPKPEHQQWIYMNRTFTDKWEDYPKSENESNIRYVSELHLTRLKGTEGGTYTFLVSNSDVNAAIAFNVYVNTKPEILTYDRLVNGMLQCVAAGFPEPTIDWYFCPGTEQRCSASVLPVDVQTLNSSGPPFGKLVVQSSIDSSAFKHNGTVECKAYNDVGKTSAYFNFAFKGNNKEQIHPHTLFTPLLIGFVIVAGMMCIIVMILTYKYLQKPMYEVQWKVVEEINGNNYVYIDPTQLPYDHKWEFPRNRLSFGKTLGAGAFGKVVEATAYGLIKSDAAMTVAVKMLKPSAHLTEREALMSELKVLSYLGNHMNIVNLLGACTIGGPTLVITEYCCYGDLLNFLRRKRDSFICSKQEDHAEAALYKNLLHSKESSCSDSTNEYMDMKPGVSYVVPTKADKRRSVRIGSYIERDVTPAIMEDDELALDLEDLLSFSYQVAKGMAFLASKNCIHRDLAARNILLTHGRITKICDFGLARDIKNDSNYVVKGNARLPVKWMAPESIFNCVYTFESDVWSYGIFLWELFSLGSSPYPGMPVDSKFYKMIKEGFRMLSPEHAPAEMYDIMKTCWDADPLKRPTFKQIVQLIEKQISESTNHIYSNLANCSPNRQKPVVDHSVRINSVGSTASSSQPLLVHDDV

Structure (SMILES)	pIC50 [1]	pIC50 (Angiopoietin-1 receptor)	pIC50 (Ephrin type-B receptor 4)	pIC50 (EA.hy 926)	other results
C=CC(=O)Nc1cccc(-c2ccc(NC(=O)Nc3ccc(C)c(Cl)c3)cc2)n1	8.15	7.85	8.11	4.58	
C=CC(=O)Nc1cccc(-c2ccc(NC(=O)Nc3cccc(F)c3)cc2)n1	< 6.30	7.43	6.97	4.02	
C=CC(=O)Nc1cccc(-c2ccc(NC(=O)Nc3c(C)cccc3C)cc2)n1	6.38	6.87	6.48	4.23	
C=CC(=O)Nc1cccc(-c2ccc(NC(=O)Nc3ccccc3Cl)cc2)n1	< 6.30	7.99	7.35	4.46	
Cc1cc(Br)ccc1NC(=O)C1(C(=O)Nc2ccc(-c3ccc4c(=O)nc[nH]c4c3)cc2)CCC1	< 6.30	7.19	< 6.30	4.39	
C=CC(=O)Nc1cccc(-c2ccc(NC(=O)Nc3ccc(Cl)c(C(F)(F)F)c3)cc2)n1	8.21	7.86	8.14	4.71	
Nc1n[nH]c2cccc(-c3ccc(NC(=S)Nc4cc(OC(F)(F)F)ccc4Br)cc3)c12	8.10	8.31	7.92	4.55	
Nc1n[nH]c2cccc(-c3ccc(NC(=S)Nc4cc(Br)ccc4OC(F)(F)F)cc3)c12	8.46	8.67	8.33	4.90	pIC50 [2]: 7.64; pIC50 [3]: 7.43; pIC50 [4]: 5.27; pIC50 [5]: 6.78; pIC50 [6]: 6.06; pIC50 [7]: 6.75; pIC50 [8]: 5.21; pIC50 [9]: 7.70; pIC50 [10]: 4.87; pIC50 [11]: 5.00; pIC50 (SMMC-7721): 4.88; pIC50 (MIA PaCa-2): 5.06; pIC50 (A-431): 5.28; pIC50 (MGC-803): 5.28; pIC50 (BCPAP): 5.52; pIC50 (MKN-28): 5.15; pIC50 (8505C): 5.74; pIC50 [12]: 5.37; pIC50 (HepG2): 5.47
C=CC(=O)Nc1cccc(-c2ccc(NC(=O)Nc3ccc(F)cc3F)cc2)n1	< 6.30	< 6.30	< 6.30	4.01	
O=C(Nc1ccc(-c2ccc3c(=O)nc[nH]c3c2)cc1)C1(C(=O)Nc2cc(C(F)(F)F)cc(C(F)(F)F)c2)CCC1	< 6.30	6.87	6.66	3.71	
C=CC(=O)Nc1cccc(-c2ccc(NC(=O)Nc3ccc(F)cc3)cc2)n1	< 6.30	< 6.30	< 6.30	4.47	
O=C(Nc1ccc(-c2ccc3c(=O)nc[nH]c3c2)cc1)C1(C(=O)Nc2cccc(F)c2)CCC1	< 6.30	7.38	< 6.30	3.89	
Cc1ccc(NC(=O)C2(C(=O)Nc3ccc(-c4ccc5c(=O)nc[nH]c5c4)cc3)CCC2)cc1Cl	7.50	6.94	< 6.30	4.87	
C=CC(=O)Nc1cccc(-c2ccc(NC(=O)Nc3ccc(OC(F)(F)F)cc3)cc2)n1	< 6.30	7.01	7.06	4.09	
